Assay results reported in US11767330B2, “Citrate salt, pharmaceutical compositions, and methods of making and using the same” (Foghorn Therapeutics Inc., priority 2021, dated 2023).

Assay: Forced degradation study of compound D1 (HPLC)
Assay type: physicochemical
Method: Sample stock solution was prepared by weighing 60.74 mg of compound D1 to a 100 mL volumetric flask, dissolving by ultrasonic in 50 mL of diluent 2, diluting to volume with diluent 2, and mixing well.
Unstressed sample solution was prepared by weighing 21.32 mg of compound D1 into a 100 mL volumetric flask, dissolving by ultrasonic in 50 mL of diluent 3, diluting to volume with diluent 3, and mixing well.
Sample solution for pH=4.0 solution stability was prepared as follows. 20.96 mg of compound D1 were weighed into a 100 mL volumetric flask, dissolved by ultrasonic in 50 mL of pH=4.0 50 mM sodium citrate buffer, diluted to volume with pH=4.0 50 mM sodium citrate buffer, and mixed well.
Sample solution for pH=5.0 solution stability was prepared as follows. 20.75 mg of compound D were weighed into a 100 mL volumetric flask, dissolved by ultrasonic in 50 mL of pH=5.0 50 mM sodium citrate buffer, diluted to volume with pH=5.0 50 mM sodium citrate buffer, and mixed well.
Sample solution for pH=7.0 solution stability was prepared as follows. 19.91 mg of compound D1 and 684.71 mg KH2PO4 were weighed into a 100 mL volumetric flask, dissolved by ultrasonic in 50 mL of diluent 1, transferred 29.1 mL of 0.1N NaOH into the same volumetric flask, diluted to volume with diluent 1, and mixed well.
Acid degradation (1N HCl at RT). 3 mL of the sample stock solution (see above) were transferred into an 8 mL vial, 3 mL of 2N HCl solution were added, and the resulting mixture was mixed well. Samples were prepared in quadruplicate and kept at RT. At the sampling point, 2 mL of the sample were transferred into an 8 mL vial and neutralized with 1 mL of 2N NaOH.
Samples were prepared in triplicate and kept at RT. […]
Oxidation degradation (3% H2O2 at RT). 3 mL of the sample stock solution (see above) were transferred into an 8 mL vial, 3 mL of 6% H2O2 solution were added, and the resulting mixture was mixed well. Samples were prepared in quadruplicate and kept at RT. At the sampling time point, 2 mL of the solution were transferred into an 8 mL vial, neutralized with 1 mL of diluent 3, and mixed well.
Photolysis degradation (solid). About 60 mg of compound D1 were placed onto a watch glass. Samples were prepared in triplicate and placed in a photo chamber (see Table 8). At the sampling time point, the sample was placed in a vial for analysis. About 20.0±2.0 mg of the sample into a 100 mL volumetric flask, dissolved by ultrasonic in 50 mL of diluent 3, diluted to volume with diluent 3, and mixed well.
Dark control sample: one sample was prepared as described above for this test, but the watch glass was covered with aluminum foil, and processed as described above.
Solid: about 60 mg of compound D1 were weighted into an 8 mL vial. Samples were prepared in triplicate and placed in an oven at 80° C. At the sampling time point, about 20.0±2.0 mg of the sample were weighed into a 100 mL volumetric flask, dissolved by ultrasonic in 50 mL of diluent 3, diluted to volume with diluent 3, and mixed well.
Solution: 3 mL of the sample stock solution (see above) were transferred into an 8 mL vial. Samples were prepared in triplicate and placed them in an oven at 80° C. At the sampling time point, 1 mL of the solution was transferred into an 8 mL vial, neutralized with 2 mL of diluent 3, and mixed well.
Humidity degradation (92% RH for solid). About 60 mg of compound D1 were transferred into a 20 mL vial (without cap). Samples were prepared in triplicate and placed in a desiccator at 92% RH. At the sampling time point, about 20.0±2.0 mg of the sample were transferred into a 100 mL volumetric flask, dissolved by ultrasonic in 50 mL of diluent 3, diluted to volume with diluent 3, and mixed well.
Solution Stability. Samples were prepared tested under the solution stability conditions noted in Table 8. The sampling time points were as noted in Table 8.

[1] = Acid Hydrolysis, 1N HCl RT, 0 h
[2] = Acid Hydrolysis, 1N HCl RT, 1 d
[3] = Acid Hydrolysis, 1N HCl RT, 2 d
[4] = Acid Hydrolysis, 1N HCl RT, 3 d
[5] = Base Hydrolysis, 1N NaOH RT, 0 h
[6] = Base Hydrolysis, 1N NaOH RT, 1 h
[7] = Photolysis, 1.10 W/m^2/25° C. for solid, 13 h
[8] = Photolysis, 1.10 W/m^2/25° C. for solid, 26 h
[9] = Photolysis, 1.10 W/m^2/25° C. for solid, 39 h
[10] = Solution Stability, pH = 4.0, 50 mM Sodium citrate buffer at RT, 0 h
[11] = Solution Stability, pH = 4.0, 50 mM Sodium citrate buffer at RT, 1 d
[12] = Solution Stability, pH = 4.0, 50 mM Sodium citrate buffer at RT, 3 d
[13] = Solution Stability, pH = 4.0, 50 mM Sodium citrate buffer at RT, 7 d
[14] = Solution Stability, pH = 5.0 50 mM Sodium citrate buffer at RT, 0 h
[15] = Solution Stability, pH = 5.0 50 mM Sodium citrate buffer at RT, 1 d
[16] = Solution Stability, pH = 5.0 50 mM Sodium citrate buffer at RT, 3 d
[17] = Solution Stability, pH = 5.0 50 mM Sodium citrate buffer at RT, 7 d
[18] = Solution Stability, pH = 7.0 Phosphate buffer at RT, 0 h
[19] = Solution Stability, pH = 7.0 Phosphate buffer at RT, 1 d
[20] = Solution Stability, pH = 7.0 Phosphate buffer at RT, 2 d

COc1cc(-c2cn(C)c(=O)c3cnc(N4CCC4)cc23)cc(OC)c1CN1CCC(CN2CCC3(CC2)CN(c2ccc4c(c2)C(=O)N(C2CCC(=O)NC2=O)C4)C3)CC1 (racemic) [Compound D1, 3-[6-(7-[[1-([4-[6-(azetidin-1-yl)-2-methyl-1-oxo-2,7-naphthyridin-4-yl]-2,6-dimethoxyphenyl]methyl)piperidin-4-yl]methyl]-2,7-diazaspiro[3.5]nonan-2-yl)-1-oxo-3H-isoindol-2-yl]piperidine-2,6-dione]
% Degradation [1]: 0.438% | % Mass Balance [1]: 108.2% | Area % [1]: 93.734% | % Degradation [2]: 4.781% | % Mass Balance [2]: 106.5% | Area % [2]: 89.391% | % Degradation [3]: 8.992% | % Mass Balance [3]: 107.6% | Area % [3]: 85.180% | % Degradation [4]: 12.125% | % Mass Balance [4]: 106.9% | Area % [4]: 82.047% | % Degradation [5]: 25.210% | % Mass Balance [5]: 104.0% | Area % [5]: 68.962% | % Degradation [6]: 76.841% | % Mass Balance [6]: 98.0% | Area % [6]: 17.331% | % Degradation (Humidity, 92% RH, 1 d): 1.245% | % Mass Balance (Humidity, 92% RH, 1 d): 98.8% | Area % (Humidity, 92% RH, 1 d): 92.927% | % Degradation (Humidity, 92% RH, 3 d): 2.091% | % Mass Balance (Humidity, 92% RH, 3 d): 99.5% | Area % (Humidity, 92% RH, 3 d): 92.081% | % Degradation (Humidity, 92% RH, 7 d): 3.282% | % Mass Balance (Humidity, 92% RH, 7 d): 99.8% | Area % (Humidity, 92% RH, 7 d): 90.890% | % Degradation (Oxidation, 3% H2O2 RT, 0 h): 16.184% | % Mass Balance (Oxidation, 3% H2O2 RT, 0 h): 106.8% | Area % (Oxidation, 3% H2O2 RT, 0 h): 77.988% | % Degradation (Oxidation, 3% H2O2 RT, 8 h): 60.417% | % Mass Balance (Oxidation, 3% H2O2 RT, 8 h): 105.2% | Area % (Oxidation, 3% H2O2 RT, 8 h): 33.755% | % Degradation [7]: 3.088% | % Mass Balance [7]: 101.0% | Area % [7]: 91.084% | % Degradation [8]: 3.256% | % Mass Balance [8]: 92.1% | Area % [8]: 90.916% | % Degradation [9]: 3.436% | % Mass Balance [9]: 105.7% | Area % [9]: 90.736% | % Degradation [10]: 0.656% | % Mass Balance [10]: 90.1% | Area % [10]: 93.516% | % Degradation [11]: 0.841% | % Mass Balance [11]: 93.7% | Area % [11]: 93.331% | % Degradation [12]: 1.299% | % Mass Balance [12]: 93.9% | Area % [12]: 92.873% | % Degradation [13]: 2.042% | % Mass Balance [13]: 93.7% | Area % [13]: 92.130% | % Degradation [14]: 1.674% | % Mass Balance [14]: 95.3% | Area % [14]: 92.498% | % Degradation [15]: 1.922% | % Mass Balance [15]: 103.1% | Area % [15]: 92.250% | % Degradation [16]: 2.133% | % Mass Balance [16]: 100.0% | Area % [16]: 92.039% | % Degradation [17]: 4.658% | % Mass Balance [17]: 100.8% | Area % [17]: 89.514% | % Degradation [18]: 1.534% | % Mass Balance [18]: 97.1% | Area % [18]: 92.638% | % Degradation [19]: 8.920% | % Mass Balance [19]: 102.6% | Area % [19]: 85.252% | % Degradation [20]: 15.170% | % Mass Balance [20]: 100.6% | Area % [20]: 79.002% | % Degradation (Thermal, 80° C., Solid, 1 d): 0.724% | % Mass Balance (Thermal, 80° C., Solid, 1 d): 105.7% | Area % (Thermal, 80° C., Solid, 1 d): 93.448% | % Degradation (Thermal, 80° C., Solid, 3 d): 0.978% | % Mass Balance (Thermal, 80° C., Solid, 3 d): 97.6% | Area % (Thermal, 80° C., Solid, 3 d): 93.194% | % Degradation (Thermal, 80° C., Solid, 7 d): 11.980% | % Mass Balance (Thermal, 80° C., Solid, 7 d): 92.7% | Area % (Thermal, 80° C., Solid, 7 d): 82.192% | % Degradation (Thermal, 80° C., Solution, 1 d): 0.119% | % Mass Balance (Thermal, 80° C., Solution, 1 d): 100.5% | Area % (Thermal, 80° C., Solution, 1 d): 94.053% | % Degradation (Thermal, 80° C., Solution, 7 d): 62.235% | % Mass Balance (Thermal, 80° C., Solution, 7 d): 104.2% | Area % (Thermal, 80° C., Solution, 7 d): 31.937% | Area % (Unstressed): 94.172%
